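Where inhibition never reached the appropriate level, the endpoint shown equals the highest concentration tested. Otherwise, values were interpolated linearly from a five-concentration, 48-hour dose response in 96-well plates. GI50 is the concentration that inhibits growth by half.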 Active and inactive are the calls of the source. Cut-off read from the data, not from the text of the source: active = GI50 up to about 1.1 µM and inactive = higher.

Test systems include UACC-62; SK-MEL-5; SK-OV-3; SN12C; RXF 393; TK-10; CAKI-1; SNB-19; OVCAR-8; CCRF-CEM; NCI-H226; SF-539; OVCAR-4.
Holding throughout (assay): growth of human tumour cells (NCI), 48 h

As to `CCCC[C@H](CCc1ccccc1)N(C(=O)OC)N1CCC[C@H]1COC`, the GI50 is 16 µM (inactive) in the experiment with UACC-62; 18.3 µM (inactive) in the experiment with SK-MEL-5; 24.1 µM (inactive) with SK-OV-3; 17.9 µM (inactive) in the experiment with SN12C; 18.1 µM (inactive) in the experiment with RXF 393; 26.4 µM (inactive) with TK-10. Further, the GI50 was 29.9 µM (inactive) in the experiment on CAKI-1; 16.4 µM (inactive) in the experiment with SNB-19; 27.5 µM (inactive) with OVCAR-8; 15.5 µM (inactive) with CCRF-CEM; 20.2 µM (inactive) with NCI-H226; 18 µM (inactive) in the experiment with SF-539. For the same molecule, the GI50 with OVCAR-4 was 17.5 µM (inactive).
Regarding `Cc1c(C(=O)/C=C/c2ccc([N+](=O)[O-])cc2)[n+]([O-])c2ccccc2[n+]1[O-]`, the GI50 in the experiment with UACC-62 is 41.7 µM (inactive); in the experiment with SK-OV-3, > 100 µM (inactive); with SN12C it was > 100 µM (inactive); with RXF 393 it was 29.1 µM (inactive); with TK-10, > 100 µM (inactive); with CAKI-1, 64.7 µM (inactive). The GI50 in the experiment with SNB-19 was > 100 µM (inactive); in the experiment with OVCAR-8 it was 55.3 µM (inactive); in the experiment with CCRF-CEM it was 20.9 µM (inactive); with NCI-H226, > 100 µM (inactive); with SF-539, 49.1 µM (inactive); with OVCAR-4 it was 24.8 µM (inactive).
Consider `O=C(CN1CCOCC1)Nc1nc(-c2ccc(Cl)cc2)cs1`, for which the GI50 with UACC-62 is 20 µM (inactive); in the experiment on SK-OV-3 it was 65.3 µM (inactive); in the experiment on SN12C it was 34.3 µM (inactive); with TK-10 it was 34.4 µM (inactive); in the experiment on CAKI-1, 34.4 µM (inactive); with SNB-19 it was 39.1 µM (inactive). The GI50 in the experiment on OVCAR-8 is 23.8 µM (inactive); in the experiment with CCRF-CEM, 21.3 µM (inactive); with NCI-H226, 24 µM (inactive); in the experiment on SF-539, 44.4 µM (inactive); in the experiment on OVCAR-4 it was 25.7 µM (inactive).
Consider `O=C(O)C12C3C4C1C1C2C3C1(Br)C41OCCO1` (centres undefined), for which the GI50 in the experiment on SK-MEL-5, with SK-OV-3, with RXF 393, with TK-10, in the experiment with SNB-19 and with OVCAR-8 was > 100 µM (inactive) in each case. The GI50 in the experiment with CCRF-CEM and with SF-539 was > 100 µM (inactive) in each case.
As to `COc1cc2c(c(OC)c1OC)[C@@H]1CCCCC[C@@H]1CCC2=O`, the GI50 with UACC-62 is 78.9 µM (inactive); in the experiment with SK-MEL-5, 57.5 µM (inactive); in the experiment on SK-OV-3, > 100 µM (inactive); in the experiment on SN12C, > 100 µM (inactive); with RXF 393, > 100 µM (inactive); in the experiment on TK-10 it was > 100 µM (inactive). In addition, the GI50 in the experiment with CAKI-1 is > 100 µM (inactive); in the experiment on SNB-19, > 100 µM (inactive); in the experiment with OVCAR-8, > 100 µM (inactive); in the experiment with CCRF-CEM, 22.8 µM (inactive); in the experiment with NCI-H226, > 100 µM (inactive); in the experiment with SF-539 it was > 100 µM (inactive). Besides, the GI50 with OVCAR-4 is > 91.8 µM (inactive).
As to `CCc1nc(N)nc(C(=O)NCCNC(=O)c2nc(N)nc(CC)c2C)c1C`, the GI50 in the experiment on UACC-62, with SK-MEL-5, in the experiment with SN12C, in the experiment with RXF 393, in the experiment with TK-10 and in the experiment on CAKI-1 was > 100 µM (inactive) throughout. Also, the GI50 in the experiment with SNB-19, with OVCAR-8, in the experiment on NCI-H226, in the experiment on SF-539 and in the experiment on OVCAR-4 was > 100 µM (inactive) each time.
As for `CC(C)C(Nc1c2ccccc2[n+](C)c2ccccc12)C(=O)O` (centres undefined), the GI50 with UACC-62, in the experiment with SK-MEL-5, in the experiment on SK-OV-3, with SN12C, in the experiment on RXF 393 and in the experiment on TK-10 was > 100 µM (inactive) each time. Also, the GI50 with CAKI-1, in the experiment with SNB-19, with OVCAR-8, with NCI-H226, in the experiment on SF-539 and in the experiment on OVCAR-4 was > 100 µM (inactive) throughout.
As to `COc1ccc2nc(NC(=O)C(=O)C(C#N)c3ccc([N+](=O)[O-])cc3)sc2c1` (centres undefined), the GI50 with UACC-62 is 46 µM (inactive); in the experiment with SK-MEL-5, > 100 µM (inactive); in the experiment with SK-OV-3, > 100 µM (inactive); with SN12C it was > 100 µM (inactive); in the experiment with RXF 393, > 100 µM (inactive); in the experiment on TK-10, > 100 µM (inactive). For the same molecule, the GI50 with CAKI-1, in the experiment with SNB-19, with OVCAR-8, in the experiment on NCI-H226, in the experiment with SF-539 and in the experiment on OVCAR-4 was > 100 µM (inactive) throughout.
For the molecule `CC(=O)c1ccccc1NC(=O)C(=O)C(C(=O)c1ccc2ccccc2c1)C1OC(=O)c2ccccc21` (centres undefined), the GI50 in the experiment with UACC-62 was 13 µM (inactive); in the experiment with SK-MEL-5 it was 11.4 µM (inactive); in the experiment on SK-OV-3 it was 29.2 µM (inactive); in the experiment with SN12C, 13.7 µM (inactive); with TK-10 it was 34 µM (inactive); in the experiment with CAKI-1, 10.6 µM (inactive). Moreover, the GI50 was 4.73 µM (inactive) in the experiment with SNB-19; 11.6 µM (inactive) in the experiment on OVCAR-8; 4.42 µM (inactive) in the experiment on CCRF-CEM; 2.26 µM (inactive) in the experiment on NCI-H226; 4.72 µM (inactive) in the experiment on SF-539; 17.2 µM (inactive) with OVCAR-4.
Regarding `CCN(CC)c1oc(N(CC)CC)c(C(=O)Nc2ccccn2)c(=O)c1C(C)=O`, the GI50 with UACC-62, with SK-MEL-5, with SK-OV-3, with SN12C, in the experiment on TK-10 and in the experiment on CAKI-1 was > 100 µM (inactive) in each case. For the same molecule, the GI50 with SNB-19, with OVCAR-8, in the experiment on CCRF-CEM, in the experiment on NCI-H226 and in the experiment with SF-539 was > 100 µM (inactive) in each case.
Regarding `CCOC(C[C@H](O[Si](C)(C)C(C)(C)C)[C@H]1COC(=S)S1)OCC`, the GI50 is 48.1 µM (inactive) in the experiment with SK-MEL-5; 55.8 µM (inactive) with SN12C; > 100 µM (inactive) with TK-10; 28.8 µM (inactive) in the experiment on SNB-19; 66.5 µM (inactive) with OVCAR-8; 34.9 µM (inactive) with CCRF-CEM. Besides, the GI50 in the experiment with NCI-H226 is 85.1 µM (inactive); with SF-539 it was 33.6 µM (inactive).
With `COc1cc(OC)c(/C=C2\N=C(C)N(Nc3nnc(NN4C(=O)/C(=C/c5c(OC)cc(OC)cc5OC)N=C4C)c4ccccc34)C2=O)c(OC)c1`, the GI50 in the experiment on UACC-62, in the experiment on SK-MEL-5, in the experiment with SN12C, with RXF 393, in the experiment on SNB-19 and in the experiment on OVCAR-8 was > 100 µM (inactive) throughout. The GI50 in the experiment with CCRF-CEM, with NCI-H226, with SF-539 and in the experiment on OVCAR-4 was > 100 µM (inactive) throughout.
As for `CCCCC(N)CSSCC(N)CCCC` (centres undefined), the GI50 with UACC-62 was 21.1 µM (inactive); in the experiment on SK-MEL-5, 22.9 µM (inactive); with SK-OV-3, 57.1 µM (inactive); with SN12C, 19.5 µM (inactive); with TK-10, > 100 µM (inactive); with SNB-19, 58.5 µM (inactive). For the same molecule, the GI50 with OVCAR-8 was 37.8 µM (inactive); with CCRF-CEM, 20.3 µM (inactive); in the experiment on NCI-H226 it was 23.5 µM (inactive); with SF-539, 23.7 µM (inactive); in the experiment with OVCAR-4, 18.2 µM (inactive).
Take `Nc1ccc(C(=O)NN2C(=O)C(Cl)C2c2cc(Br)ccc2O)cc1` (centres undefined): the GI50 in the experiment with UACC-62, in the experiment on SK-MEL-5, in the experiment on SK-OV-3, in the experiment with SN12C, with TK-10 and in the experiment with CAKI-1 was > 100 µM (inactive) each time. In addition, the GI50 is > 100 µM (inactive) in the experiment on SNB-19; > 100 µM (inactive) in the experiment on OVCAR-8; 62.1 µM (inactive) in the experiment with CCRF-CEM; > 100 µM (inactive) in the experiment with NCI-H226; > 100 µM (inactive) in the experiment with SF-539; > 100 µM (inactive) in the experiment with OVCAR-4.
Consider `Cc1c2cc[n+](C)cc2c(C)c2c1[nH]c1ccc(Oc3ccccc3)cc12`, for which the GI50 in the experiment with UACC-62 was 1.43 µM (inactive); with SK-MEL-5, 1.01 µM (active); with SK-OV-3 it was 1.14 µM (inactive); with SN12C it was 0.303 µM (active); in the experiment with CAKI-1 it was 2.12 µM (inactive); with SNB-19, 0.506 µM (active). Further, the GI50 in the experiment with OVCAR-8 was 0.605 µM (active); with CCRF-CEM, 1.38 µM (inactive); with NCI-H226, 0.544 µM (active); in the experiment with SF-539, 1.26 µM (inactive); in the experiment with OVCAR-4, 2.56 µM (inactive).
`CCCc1nc(N)nc(C(=O)Nc2cccc(C(F)(F)F)c2)c1CC`: the GI50 in the experiment on UACC-62, in the experiment on SK-MEL-5, in the experiment with SN12C, with RXF 393, in the experiment on TK-10 and in the experiment with CAKI-1 was > 100 µM (inactive) in each case. Besides, the GI50 with SNB-19, with OVCAR-8, in the experiment on NCI-H226, with SF-539 and with OVCAR-4 was > 100 µM (inactive) in each case.
As for `CSCCOC(=O)C(=[N+]=[N-])c1ccc([N+](=O)[O-])cc1`, the GI50 in the experiment with SK-OV-3, in the experiment with SN12C, with RXF 393, in the experiment with TK-10, with CAKI-1 and in the experiment with SNB-19 was > 100 µM (inactive) in each case. In addition, the GI50 with OVCAR-8, in the experiment on CCRF-CEM, in the experiment with NCI-H226, in the experiment on SF-539 and with OVCAR-4 was > 100 µM (inactive) throughout.

The values above are taken from ChEMBL document CHEMBL1201862, “PubChem BioAssay data set” (2004).
